In PubChem BioAssay (NCI):
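GI50 marks 50% less growth. At the TGI there is no net growth.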

Legend:
Test in all cases: growth of human tumour cells (NCI), 384-well format
786-0 renal = test system: 786-0 renal
A498 renal = test system: A498 renal
A549 NSCLC = test system: A549 NSCLC
ACHN renal = test system: ACHN renal
BT-549 breast = test system: BT-549 breast
CAKI-1 renal = test system: CAKI-1 renal
CCRF-CEM leukemia = test system: CCRF-CEM leukemia
COLO 205 colon = test system: COLO 205 colon
DU-145 prostate = test system: DU-145 prostate
EKVX NSCLC = test system: EKVX NSCLC
HCC-2998 colon = test system: HCC-2998 colon
HCT-116 colon = test system: HCT-116 colon
HCT-15 colon = test system: HCT-15 colon
HL-60(TB) leukemia = test system: HL-60(TB) leukemia
HOP-62 NSCLC = test system: HOP-62 NSCLC
HOP-92 NSCLC = test system: HOP-92 NSCLC
HS 578T breast = test system: HS 578T breast
HT29 colon = test system: HT29 colon
IGROV1 ovarian = test system: IGROV1 ovarian
K-562 leukemia = test system: K-562 leukemia
KM12 colon = test system: KM12 colon
LOX IMVI melanoma = test system: LOX IMVI melanoma
M14 melanoma = test system: M14 melanoma
MALME-3M melanoma = test system: MALME-3M melanoma
MCF7 breast = test system: MCF7 breast
MDA-MB-435 melanoma = test system: MDA-MB-435 melanoma
MDA-MB-468 breast = test system: MDA-MB-468 breast
MOLT-4 leukemia = test system: MOLT-4 leukemia

O=C(Nc1cccc(Br)c1)Oc1cccc2cccnc12
GI50 ([…]-0 renal): 16.3 µM | TGI (786-0 renal): 33.9 µM | GI50 (A498 renal): 12.9 µM | TGI (A498 renal): 26.3 µM | GI50 (A549 NSCLC): 13.8 µM | TGI (A549 NSCLC): 32.8 µM | GI50 (ACHN renal): 6.26 µM | TGI (ACHN renal): 27.1 µM | GI50 (BT-549 breast): 6.95 µM | TGI (BT-549 breast): 22 µM | GI50 (CAKI-1 renal): 2.35 µM | TGI (CAKI-1 renal): 4.98 µM | GI50 (CCRF-CEM leukemia): 1.94 µM | TGI (CCRF-CEM leukemia): 3.43 µM | GI50 (COLO 205 colon): 2.61 µM | TGI (COLO 205 colon): 4.87 µM | GI50 (DU-145 prostate): 8.98 µM | TGI (DU-145 prostate): 36.7 µM | GI50 (EKVX NSCLC): 2.39 µM | TGI (EKVX NSCLC): 4.96 µM | GI50 (HCC-2998 colon): 16.2 µM | TGI (HCC-2998 colon): 30.1 µM | GI50 (HCT-116 colon): 2.4 µM | TGI (HCT-116 colon): 4.37 µM | GI50 (HCT-15 colon): 3.4 µM | TGI (HCT-15 colon): 9.07 µM | GI50 (HL-60(TB) leukemia): 1.73 µM | TGI (HL-60(TB) leukemia): 3.11 µM | GI50 (HOP-62 NSCLC): 7.61 µM | TGI (HOP-62 NSCLC): 18.8 µM | GI50 (HOP-92 NSCLC): 4.02 µM | TGI (HOP-92 NSCLC): 10.5 µM | GI50 (HS 578T breast): 16.7 µM | TGI (HS 578T breast): 39.8 µM | GI50 (HT29 colon): 8.98 µM | TGI (HT29 colon): 21.2 µM | GI50 (IGROV1 ovarian): 2.23 µM | TGI (IGROV1 ovarian): 4.46 µM | GI50 (K-562 leukemia): 23.5 µM | TGI (K-562 leukemia): 50.3 µM | GI50 (KM12 colon): 5.99 µM | TGI (KM12 colon): 18.1 µM | GI50 (LOX IMVI melanoma): 2.95 µM | TGI (LOX IMVI melanoma): 10.8 µM | GI50 (M14 melanoma): 2.78 µM | TGI (M14 melanoma): 6.06 µM | GI50 (MALME-3M melanoma): 4.16 µM | TGI (MALME-3M melanoma): 13.1 µM | GI50 (MCF7 breast): 2.23 µM | TGI (MCF7 breast): 4.47 µM | GI50 (MDA-MB-435 melanoma): 12.6 µM | TGI (MDA-MB-435 melanoma): 30.4 µM | GI50 (MDA-MB-468 breast): 2.82 µM | TGI (MDA-MB-468 breast): 4.48 µM | GI50 (MOLT-4 leukemia): 1.99 µM
